Source: paper PMC4773869, “Influence of plasma-activated compounds on melanogenesis and tyrosinase activity” (Scientific Reports, 2016)
Where two headings read alike, the source gives them in different places.

What was measured:
B16F10 cells [1] = assay: Cell morphology of melanoma cells (microscopy); format: cell-based, murine; details: 14-42 μg/ml, 24 hr, as-synthesized
Description: For cell morphology, the melanoma cells were seeded in cell culture plates (SPL Korea) and incubated at 37 °C (5% CO2 atmosphere). The cells were then incubated with the various concentrations of 4b and 6a (0 (con), 14, 21, 28, 35, and 42 μg/ml) following 24 hr incubation. The cell morphology was accessed and images were captured using an inverted fluorescent microscope (Nikon, ECLIPSE, Ti).

B16F10 cells [2] = assay: Intracellular melanin content measurement; format: cell-based, murine; details: for melanin, % of control (normalized to 100%): as-synthesized ED, no α-MSH, concentration not given; for activity at 35 µg/mL: Mus musculus, B16-F10, 35 μg/ml, read-out: melanin content, % of control (100%)
Description: Melanoma (1.5 × 10^5) cells were seeded in cell culture plates and allowed to attach for 24 hr. Then each eugenol derivative was added and tested separately for melanin activation after 24 hr of incubation. After incubation, cells were detached using trypsin/EDTA and centrifuged at 1000 rpm for 5 min to collect the cell pellets. The cell pellets were solubilized in 1N NaOH at 60 °C for 1 hr. The melanin content was measured spectrophotometrically at 405 nm wavelength using a microplate reader (BioTek, synergy HT)[56]. […] Plasma-treated and non-plasma-treated ED (4b and 6a) were added to the cells, pre-incubated with or without α-MSH (100 nM) for a further 24 hr and melanin content was assayed as described above. Kojic acid can inhibit and α-MSH can stimulate the melanin in the cells, therefore we used them as negative and positive controls.

cAMP in B16F10 cells = assay: Intracellular cAMP measurement (cAMP kit); format: cell-based, murine; details: for cAMP level: PAED (plasma-treated compound), compared with as-synthesized compound and control; for cAMP level compared to the control: as-synthesized compound, control: media only with cells
Description: For cAMP measurement, the 4b and 6a were treated with plasma for 3, 5, and 10 min, and then added to the cells, pre-incubated with or without α-MSH (100 nM) for 24 hr. The cells were trypsinised and centrifuged to obtain the cell pellets. The cell pellet was lysed and the cAMP level was measured using a cAMP Kit (Abcam, USA) according to the manufacturer’s instructions.

mushroom tyrosinase = mushroom tyrosinase (Agaricus bisporus, UniProt C7FF04); assay: Kinetic analysis of the inhibition of mushroom tyrosinase (Lineweaver-Burk and Dixon plots); format: biochemical; details: Lineweaver-Burk plot; substrate L-DOPA; as-synthesized compound
Chain of mushroom tyrosinase (C7FF04 2-392): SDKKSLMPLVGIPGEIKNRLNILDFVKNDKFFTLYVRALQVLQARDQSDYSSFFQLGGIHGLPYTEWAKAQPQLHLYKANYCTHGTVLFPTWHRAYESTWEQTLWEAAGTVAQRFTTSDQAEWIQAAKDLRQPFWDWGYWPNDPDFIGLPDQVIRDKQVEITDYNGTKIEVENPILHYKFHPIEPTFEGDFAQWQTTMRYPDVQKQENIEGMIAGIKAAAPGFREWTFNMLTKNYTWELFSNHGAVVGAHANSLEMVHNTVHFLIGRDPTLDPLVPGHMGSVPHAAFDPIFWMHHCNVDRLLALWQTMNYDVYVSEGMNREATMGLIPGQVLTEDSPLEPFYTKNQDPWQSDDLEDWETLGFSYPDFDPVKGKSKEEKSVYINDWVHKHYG
Description: Latter, we studied the kinetic behavior of mushroom tyrosinase during the oxidation of L-DOPA with the selective ED compounds (4b and 6a). In the present investigation, the oxidation reaction of L-DOPA by mushroom tyrosinase follows the Michaelis-Menten kinetics. The inhibitory mechanism of both of the compounds was determined by using Lineweaver-Burk plot (double reciprocal plot) as well as a Dixon plot at various concentrations of substrate L-DOPA (0.0, 0.125, 0.25, 0.5, 1.0 and 2.0 mM), as shown in Fig. 4. The double-reciprocal plot of enzyme activity in the presence of compound 4b with concentration 0.0, 18.0, 36.5, 73, 146 μM and compound 6a with concentration 0.0, 6.7, 13.5, 27 μM are shown in Fig. 4(a,b), respectively. […] The Dixon plot was determined by 1/V versus inhibitor concentrations [I] at various concentrations of substrate in mM. […] Further, to determine the action of these eugenol derivatives on the structure of tyrosinase enzyme, we performed CD analysis and molecular docking studies. A series of experiments were performed to determine the inhibition kinetics using the following method. […] The formation of DOPAchrome was continuously monitored at 475 nm for 5 min at a 30 sec intervals in the microplate reader after the addition of the enzyme.

[3] = test system: intracellular ROS in B16F10 cells; assay: Intracellular ROS measurement (carboxy-H2DCFDA); format: cell-based, murine; details: for intracellular ROS level, PAED compared to ED: plasma-treated compound versus as-synthesized compound
Description: Intracellular reactive oxygen species (ROS) were quantified using carboxy-H2DCFDA (5-(and 6)-carboxy-20,70-dichlorodihydrofluorescein diacetate), by monitoring the fluorescence intensity.
Briefly, various concentrations of as-synthesized 4b and 6a or plasma-treated 4b and 6a were incubated with cells. After 24 hr, the cells were centrifuged for 5 min at 1000 rpm and the collected cell pellet was washed with PBS and labeled with carboxy-H2DCFDA dye following 30 min of incubation at 37 °C. The samples were centrifuged again and each pellet was mixed with 500 μl PBS. The 200 μl samples were then transferred in 96-well plates (black plate, clear bottom, corning incorporated USA) and fluorescence was measured at excitation/emission: 485/528 nm using a microplate reader.

[4] = test system: MITF expression in B16F10 cells; assay: Western blot, MITF expression; format: cell-based, murine; details: 24 hr; for expression of MITF versus control: ED (as-synthesized); for expression of MITF versus ED: PAED (plasma-treated)
Description: Melanoma cells were incubated with as-synthesized and plasma-treated 4b and 6a test compounds for 24 hr. Following incubation, treated and untreated cells were lysed in RIPA buffer (Cell Signaling Technology, USA), whole cell protein was extracted and subjected to electrophoresis in 12% SDS-PAGE, and blotted onto nitrocellulose membranes. The membrane was probed with the antibodies raised against MITF, tyrosinase and TRP1 (Abcam, USA). The bands were detected using Super Signal West Pico Chemiluminescent Substrate (Pierce, Rockford, IL, USA) and images were taken using a Vilver imaging system (Vilver, Upland, CA, USA).

effect on cell morphology (B16F10 cells [1])	melting point [°C]	type of inhibition (mushroom tyrosinase)	Compound	melanin, % of control (normalized to 100%) (B16F10 cells [2]) [%]	cAMP level (cAMP in B16F10 cells)	cAMP level compared to the control (cAMP in B16F10 cells)	intracellular ROS level, PAED compared to ED [3]	expression of MITF versus control [4]	expression of MITF versus ED [4]	activity at 35 µg/mL (B16F10 cells [2]; after plasma treatment for 10 min, absence of α-MSH) [%]	activity at 35 µg/mL (B16F10 cells [2]; as-synthesized, absence of α-MSH) [%]	activity at 35 µg/mL (B16F10 cells [2]; as-synthesized, presence of α-MSH) [%]	intracellular ROS, comparison between compounds ([3]; independent of plasma treatment)
no effect on cell morphology	114 to 116	uncompetitive inhibitor	C=CCc1ccc(OC(=O)COC(=O)/C=C/c2ccc(O)cc2)c(OC)c1 [6a, 2-[2-methoxy-4-(prop-2-en-1-yl)phenoxy]-2-oxoethyl(2E)-3-(4-hydroxyphenyl)prop-2-enoate]	125	enhanced even further	increased	higher intracellular ROS levels	higher expression	more expression				
no effect on cell morphology	81 to 83	competitive inhibitor	C=CCc1ccc(OC(=O)COC(=O)c2ccc(O)cc2)c(OC)c1 [4b, 2-[2-methoxy-4-(prop-2-en-1-yl)phenoxy]-2-oxoethyl 4-hydroxybenzoate]	126	enhanced even further	increased	higher intracellular ROS levels	higher expression	more expression	143	125	156	higher intracellular ROS than 6a
